In patent US20160271251A1, “RADIOLUMINESCENT COMPOUND FOR RADIOTHERAPY AND DEEP PHOTODYNAMIC THERAPY AND DEVICE FOR DEEP PHOTODYNAMIC THERAPY” (SYNCHROTRON SOLEIL, priority 2013, published 2016):

How the values were obtained:
[1] = UV-visible absorption spectrum of photosensitiser; assay type: physicochemical
From the text: (§1) For the acquisition of these spectra, the two molecules are mixed in the same aqueous solvent. The energy of the X-ray radiation is generally comprised between 1 and 20 keV and selected so as to be higher than an absorption threshold of the radioluminescent molecule, so that the radioluminescent molecule absorbs the X-ray radiation of energy and emits a luminescence radiation in the visible domain.

[2] = X-ray-excited luminescence (radioluminescence) spectrum; assay type: physicochemical; details: for emission band of X-ray-excited luminescence: c=177 mM
From the text: as §1

[Al].c1ccc2c(c1)-c1nc-2nc2[nH]c(nc3nc(nc4[nH]c(n1)c1ccccc41)-c1ccccc1-3)c1ccccc21 [Al(III)Phthalocyanine]
absorption band superimposed with CeCl3 emission ([1]; aqueous medium, c=4 μM): around 350 nm

[Cl][Ce]([Cl])[Cl] [CeCl3, cerium chloride]
emission band of X-ray-excited luminescence ([2]; PBS pH=7.4): 300-400 nm
emission band of X-ray-excited luminescence ([2]; PEG:EtOH:H2O 3:2:5 v/v, X-ray 1-20 keV): 300-400 nm

[Cl][Eu]([Cl])[Cl] [EuCl3, europium chloride]
most intense of the three peaks observed ([2]; DMSO medium (FIG. 7)): 700 nm
most intense of the three peaks observed ([2]; aqueous medium (FIG. 2)): 600 nm

[Cl][Gd]([Cl])[Cl] [GdCl3, gadolinium chloride]
emission bands/peak of X-ray-excited luminescence ([2]; DMSO medium, EuCl3 c=96 mM, GdCl3 c=199 mM): around 320 nm

Oc1cccc(-c2c3nc(c(-c4cccc(O)c4)c4ccc([nH]4)c(-c4cccc(O)c4)c4nc(c(-c5cccc(O)c5)c5ccc2[nH]5)CC4)C=C3)c1 [mTHPC, meta-tetrahydroxyphenylchlorine]
most intense absorption band ([1]; PEG:EtOH:H2O 3:2:5 v/v, c=0.49 μM): around 400 nm

chlorine e6
most intense absorption band ([1]; PBS pH=7.4, c=0.8 μM): around 400 nm
